The NIST ThermoML archive (doi:10.1007/s10765-015-1922-3)
± gives the expanded uncertainty stated by the source.

What was measured:
[1] = Liquid; for mass density: 298.15 K, 101.33 kPa, Vibrating tube method; for Normal boiling temperature: Ebulliometric method (Recirculating still)
[2] = refractive index (Na D-line) (dimensionless); conditions: 298.15 K; 101.33 kPa; Liquid; Standard Abbe refractometry

mass density [1] | Normal boiling temperature [1] | refractive index [2] | SMILES
873.6 ± 0.16 kg/m3 | 80.01 ± 0.2 °C | 1.49692 ± 0.00073 | c1ccccc1 [benzene]
773.7 ± 0.2 kg/m3 | 80.64 ± 0.2 °C | 1.4232 ± 0.00073 | C1CCCCC1 [cyclohexane]
799.51 ± 0.31 kg/m3 | 97.2 ± 0.2 °C | 1.38305 ± 0.00075 | CCCO [propan-1-ol]
